Measurements as given in publication PMC10257182, “Discovery of senolytics using machine learning” (Nature Communications, 2023).
Read-outs that look alike come from different tables or passages of the source.

What was measured:
Format in all cases: cell-based, human
[1] = system: senescent A549 cells (etoposide-induced); test: Nuclei count senolytic assay, therapy-induced senescence (TIS) model, senescent cells; conditions: Homo sapiens, A549, Senescent cells, mean, read-out: Mean % Cell Survival
How it was run: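 Nuclei counting by high-content imaging after 72 h compound treatment of senescent (etoposide-induced) versus control A549 cells. Top dose 10 μM final, lowest 10 nM.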

[2] = system: non-senescent control IMR90 ER:RAS cells; test: Nuclei count (Hoechst, high content imaging) senolytic assay, OIS model, non-senescent control cells; conditions: Homo sapiens
How it was run: (§1)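 We compared total nuclei counts between senescent and non-senescent IMR90 ER:RAS cells after 72 h compound exposure (10 nM–10 μM). Hoechst staining followed fixation and permeabilisation; ouabain served as senolytic positive control.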

[3] = system: senescent IMR90 ER:RAS cells (4-OHT-induced); test: Nuclei count (Hoechst, high content imaging) senolytic assay, oncogene-induced senescence (OIS) model, senescent cells; conditions: Homo sapiens
How it was run: as §1

`O=c1cc(-c2ccc(O)cc2)oc2cc(O)c(O)c(O)c12` [Scutellarein, scutellarein] gave a viability at 10 µM ([1]; log (dose) [M] -5) of 108%, a viability at 4.68 µM ([1]; log (dose) [M] -5.33) of 104% and a viability at 2.19 µM ([1]; log (dose) [M] -5.66) of 105%. The viability at 1 µM ([1]; log (dose) [M] -6) was 135%, the viability at 0.468 µM ([1]; log (dose) [M] -6.33) was 106% and the viability at 0.219 µM ([1]; log (dose) [M] -6.66) was 103%. It also gave a viability at 0.1 µM ([1]; log (dose) [M] -7) of 81.8%, a viability at 0.0468 µM ([1]; log (dose) [M] -7.33) of 88.6% and a viability at 0.0219 µM ([1]; log (dose) [M] -7.66) of 97.4%. The viability at 0.01 µM ([1]; log (dose) [M] -8) was 91.3%, the viability at 10 µM ([2]; IMR-90, 72 h, Control, log (dose) [M] -5, 72 h, mean n=3 (Fig 3C), read-out: Mean % Cell Survival) was 97.3% and the viability at 4.677 µM ([2]; IMR-90, 72 h, Control, log (dose) [M] -5.33, 72 h, mean n=3 (Fig 3C), read-out: Mean % Cell Survival) was 95.7%. It also gave a viability at 2.188 µM ([2]; IMR-90, 72 h, Control, log (dose) [M] -5.66, 72 h, mean n=3 (Fig 3C), read-out: Mean % Cell Survival) of 88.9%, a viability at 1 µM ([2]; IMR-90, 72 h, Control, log (dose) [M] -6, 72 h, mean n=3 (Fig 3C), read-out: Mean % Cell Survival) of 88.2% and a viability at 0.4677 µM ([2]; IMR-90, 72 h, Control, log (dose) [M] -6.33, 72 h, mean n=3 (Fig 3C), read-out: Mean % Cell Survival) of 95.4%. It also gave a viability at 0.2188 µM ([2]; IMR-90, 72 h, Control, log (dose) [M] -6.66, 72 h, mean n=3 (Fig 3C), read-out: Mean % Cell Survival) of 109%, a viability at 0.1 µM ([2]; IMR-90, 72 h, Control, log (dose) [M] -7, 72 h, mean n=3 (Fig 3C), read-out: Mean % Cell Survival) of 118% and a viability at 0.04677 µM ([2]; IMR-90, 72 h, Control, log (dose) [M] -7.33, 72 h, mean n=3 (Fig 3C), read-out: Mean % Cell Survival) of 130%. It also gave a viability at 0.02188 µM ([2]; IMR-90, 72 h, Control, log (dose) [M] -7.66, 72 h, mean n=3 (Fig 3C), read-out: Mean % Cell Survival) of 117%, a viability at 0.01 µM ([2]; IMR-90, 72 h, Control, log (dose) [M] -8, 72 h, mean n=3 (Fig 3C), read-out: Mean % Cell Survival) of 121% and a viability at 10 µM ([2]; IMR-90, Control, log (dose) [M] -5, read-out: % Cell Survival) of 112%. It also gave a viability at 4.68 µM ([2]; IMR-90, Control, log (dose) [M] -5.33, read-out: % Cell Survival) of 101%, a viability at 2.19 µM ([2]; IMR-90, Control, log (dose) [M] -5.66, read-out: % Cell Survival) of 102% and a viability at 1 µM ([2]; IMR-90, Control, log (dose) [M] -6, read-out: % Cell Survival) of 108%. The viability at 0.468 µM ([2]; IMR-90, Control, log (dose) [M] -6.33, read-out: % Cell Survival) was 101%, the viability at 0.219 µM ([2]; IMR-90, Control, log (dose) [M] -6.66, read-out: % Cell Survival) was 107% and the viability at 0.1 µM ([2]; IMR-90, Control, log (dose) [M] -7, read-out: % Cell Survival) was 107%. For the same compound, the viability at 0.04677 µM ([2]; IMR-90, Control, log (dose) [M] -7.33, read-out: % Cell Survival) was 102%, the viability at 0.0219 µM ([2]; IMR-90, Control, log (dose) [M] -7.66, read-out: % Cell Survival) was 99.8% and the viability at 0.01 µM ([2]; IMR-90, Control, log (dose) [M] -8, read-out: % Cell Survival) was 107%. For the same compound, the viability at 10 µM ([3]; IMR-90, 72 h, Senescent, log (dose) [M] -5, 72 h, mean n=3 (Fig 3C), read-out: Mean % Cell Survival) was 124%, the viability at 4.677 µM ([3]; IMR-90, 72 h, Senescent, log (dose) [M] -5.33, 72 h, mean n=3 (Fig 3C), read-out: Mean % Cell Survival) was 124% and the viability at 2.188 µM ([3]; IMR-90, 72 h, Senescent, log (dose) [M] -5.66, 72 h, mean n=3 (Fig 3C), read-out: Mean % Cell Survival) was 132%. It also gave a viability at 1 µM ([3]; IMR-90, 72 h, Senescent, log (dose) [M] -6, 72 h, mean n=3 (Fig 3C), read-out: Mean % Cell Survival) of 124%, a viability at 0.4677 µM ([3]; IMR-90, 72 h, Senescent, log (dose) [M] -6.33, 72 h, mean n=3 (Fig 3C), read-out: Mean % Cell Survival) of 137% and a viability at 0.2188 µM ([3]; IMR-90, 72 h, Senescent, log (dose) [M] -6.66, 72 h, mean n=3 (Fig 3C), read-out: Mean % Cell Survival) of 132%. It also gave a viability at 0.1 µM ([3]; IMR-90, 72 h, Senescent, log (dose) [M] -7, 72 h, mean n=3 (Fig 3C), read-out: Mean % Cell Survival) of 115%, a viability at 0.04677 µM ([3]; IMR-90, 72 h, Senescent, log (dose) [M] -7.33, 72 h, mean n=3 (Fig 3C), read-out: Mean % Cell Survival) of 122% and a viability at 0.02188 µM ([3]; IMR-90, 72 h, Senescent, log (dose) [M] -7.66, 72 h, mean n=3 (Fig 3C), read-out: Mean % Cell Survival) of 106%. The viability at 0.01 µM ([3]; IMR-90, 72 h, Senescent, log (dose) [M] -8, 72 h, mean n=3 (Fig 3C), read-out: Mean % Cell Survival) was 100%, the viability at 4.677 µM ([3]; IMR-90, Senescent cells, log (dose) [M] -5.33, individual replicates, SUP FIG 4C, read-out: % Cell Survival) was 129% and the viability at 0.2188 µM ([3]; IMR-90, Senescent, log (dose) [M] -6.66, read-out: % Cell Survival) was 97.8%. The viability at 0.04677 µM ([3]; IMR-90, Senescent, log (dose) [M] -7.33, read-out: % Cell Survival) was 91.2% and the viability at 0.01 µM ([3]; IMR-90, Senescent, log (dose) [M] -8, read-out: % Cell Survival) was 100%.
